Test system: TNBS-induced colitis
Assay: TNBS-induced colitis in mice, oral dosing once a day Days 1-7
Type: in vivo, female SJL mice
Design: Disease Activity Index, Mean / Fecal Consistency, Mean: scale not given here
Conditions: for Percent Change in Body Weight, Mean / Percent Survivability / Disease Activity Index, Mean / Fecal Consistency, Mean / Occult Positivity, Mean: 30 mg/kg PO QD
Procedure: Healthy young female SJL mice were used for the study. At the commencement of the study, the mice were between 8-9 weeks of age, weighing 20-22 g. All the mice were obtained from The Jackson Laboratory, Bar Harbor, Me. 04609 USA.
After seven days of acclimatization, mice were grouped according to their body weight. There was one group of ten mice and five groups of fifteen mice each. Five groups of fifteen mice each were challenged intra-rectally with 100 μl of 2.0% TNBS in 50% EtOH and other group of ten mice were challenged intra-rectally with 100 μl of 50% EtOH and serve as No-TNBS control. The experimental groups were as follows:
The mice were challenged intra-rectally with 100 μl of 2% TNBS in 50% ethanol under light anesthesia with ketamine/xylazine. The test compounds were administrated an hour prior to intra-rectal administration of TNBS as per scheduled daily dosing.
Vehicle and no-TNBS control groups received 0.5% CMC orally from Day 1 to Day 7.
Body Weight: The body weights were measured daily for 1-7 days using a laboratory balance.
Disease Activity Index: The clinical assessment of the mice was performed beginning Day 2 (a day after the intra-rectal administration of TNBS). The clinical assessment includes body weight, stool consistency and the presence of blood in the stools and scored according to Table 2.
Colon Length and Weight: the mice were euthanized using CO2 asphyxiation and colon from the colocecal junction to the anus was removed, washed and cleaned of all fecal matter using PBS. The colon length and weight were measured and then preserved in 10% NBF for histopathology.
Histopathology: Formalin fixed colon samples were submitted to affiliated histopathology laboratory for histopathological analysis subjected to hematoxylin and eosin (H & E) staining using standard techniques. Each colon was trimmed from both ends and mid. All three sections were stained and evaluated.
A board certified veterinarian pathologist assessed the presence of colitis and severity score according to the following criteria: • 0=no sign of inflammation • 1=very low level of inflammation • 2=low level of leukocytic infiltration, low level of inflammation • 3=high level of leukocytic infiltration, high vascular density, inflammation and thickening of colon wall • 4=transmural infiltration, loss of goblet cells, high vascular density, crypt abscesses, thickening of colon wall and ulceration.
The data is presented as the mean±standard error (SEM) obtained from Microsoft Excel or GraphPad Prism version 5.00 for Windows (GraphPad Software, San Diego Calif. USA). The data was analyzed using two-way ANOVA using Bonferroni post-test. Differences between groups were considered significant at p<0.05.

[1] = at euthanasia, 30 mg/kg PO QD Days 1-7

C[C@@H]([C@H](O)c1ccc(O)cc1)N1CCC(Cc2ccccc2)CC1 (racemic) [Ifenprodil, 4-[2-(4-benzylpiperidin-1-ium-1-yl)-1-hydroxypropyl] phenol; 2,3,4-trihydroxy-4-oxobutanoate]
Disease Activity Index vs TNBS-vehicle group (in words) (30 mg/kg): No significant differences | histopathology, cell morphological changes / severity (in words) (30 mg/kg PO QD (Table 1)): statistically significantly reducing cell morphological changes associated with disease | body weight change as compared to the TNBS-vehicle group (in words) (30 mg/kg po): significant improvement beginning on Day 4 | Percent Change in Body Weight, Mean (Day 1): 0.00% | Percent Survivability (Day 1): 100.000% | Disease Activity Index, Mean (Day 2): 1.62 | Fecal Consistency, Mean (Day 2): 1.00 | Occult Positivity, Mean (Day 2): 1.86 | Percent Change in Body Weight, Mean (Day 2): −9.38% | Percent Survivability (Day 2): 93.000% | Disease Activity Index, Mean (Day 3): 2.04 | Fecal Consistency, Mean (Day 3): 1.71 | Occult Positivity, Mean (Day 3): 2.14 | Percent Change in Body Weight, Mean (Day 3): −11.31% | Percent Survivability (Day 3): 93.000% | Disease Activity Index, Mean (Day 4): 2.14 | Fecal Consistency, Mean (Day 4): 2.00 | Occult Positivity, Mean (Day 4): 2.62 | Percent Change in Body Weight, Mean (Day 4): −9.44% | Percent Survivability (Day 4): 86.600% | Disease Activity Index, Mean (Day 5): 1.82 | Fecal Consistency, Mean (Day 5): 1.67 | Occult Positivity, Mean (Day 5): 2.33 | Percent Change in Body Weight, Mean (Day 5): −7.64% | Percent Survivability (Day 5): 80.000% | Disease Activity Index, Mean (Day 6): 1.56 | Fecal Consistency, Mean (Day 6): 1.33 | Occult Positivity, Mean (Day 6): 2.00 | Percent Change in Body Weight, Mean (Day 6): −6.68% | Percent Survivability (Day 6): 80.000% | Disease Activity Index, Mean (Day 7): 1.41 | Fecal Consistency, Mean (Day 7): 1.17 | Occult Positivity, Mean (Day 7): 1.83 | Percent Change in Body Weight, Mean (Day 7): −6.23% | Percent Survivability (Day 7): 80.000% | Colon Length, Mean [1]: 8.93 cm | Colon Weight, Mean [1]: 0.2145 g | Colon Weight/Length ratio, Mean [1]: 24.5065 mg/cm | Histopathological severity score, Mean (colon H&E, score 0-4, 30 mg/kg PO QD Days 1-7): 1.06 | overall conclusion as compared to TNBS-vehicle (in words) (oral, 30 mg/kg): showed improvement in colitis as well as in the loss of body weight, DAI, colon length, weight and weight/length ratio

From patent publication US20210290604A1, “COMPOUNDS FOR TREATMENT OF INFLAMMATORY BOWEL DISEASE AND METHODS THEREOF” (priority 2018, published 2021)
